Measured values taken from patent US9458515B2, “RNA including nucleoside compound, method for regulating amount of protein produced from the RNA, and nucleoside compound” (RIKEN, priority 2010, dated 2016).

Experiments:
[1] = Photoisomerization reaction assessed by time-dependent changes of absorption spectra; assay type: physicochemical; conditions: 25 μM in methanol, dark place; for photoisomerization from cis form to trans form: visible light of 550 nm; for photoisomerization from trans form to cis form: visible light of 420 nm
Protocol: A stock solution was prepared by dissolving the 8-phenylazoguanosine obtained in (3-1) in methanol so that the 8-phenylazoguanosine presented at a concentration of 25 μM in the stock solution. In a quartz cell measuring 1 cm per side was placed 200 μl out of the stock solution thus prepared. The quartz cell was irradiated with visible light having a wavelength of 420 nm in a dark place, so that photoisomerization of the trans-8-phenylazoguanosine was assessed by measuring time-dependent changes of absorption spectra of the 8-phenylazoguanosine. In this assessment, MAX-301 manufactured by Asahi Spectra Co., Ltd. was used as a light source, and M.C.420/10 nm manufactured by the same manufacturer was used as a filter. As shown in FIG. 4 (in the upper part), along with trans to cis photoisomerization of the trans-8-phenylazoguanosine, a peak of an absorbance at 420 nm decreased, and an absorbance at 500 to 600 nm increased.
Out of the stock solution prepared in (3-2-1), 200 μl of stock solution was isomerized to the cis form as described previously, after which the resulting product was placed in a quartz cell measuring 1 cm per side. The quartz cell was irradiated with visible light having a wavelength of 550 nm in a dark place, so that photoisomerization of cis-8-phenylazoguanosine was assessed by measuring time-dependent changes of absorption spectrum of the 8-phenylazoguanosine. […] As shown in FIG. 4 (in the lower part), along with trans photoisomerization of the cis-8-phenylazoguanosine, a peak of an absorbance at 420 nm increased, and an absorbance at 500 to 600 nm decreased.
A stock solution was prepared by dissolving the trans-8-(p-toluoylazo)guanosine obtained in (4-1) in methanol so that the trans-8-(p-toluoylazo) guanosine presented at a concentration of 25 μM in the stock solution. […] The quartz cell was irradiated with visible light having a wavelength of 420 nm in a dark place, so that photoisomerization of the trans-8-(p-toluoylazo)guanosine was assessed by measuring time-dependent change of absorption spectra of the trans-8-(p-toluoylazo)guanosine. […] As shown in FIG. 6 (in the upper part), along with cis photoisomerization of the trans-8-(p-toluoylazo)guanosine, a peak of an absorbance at 420 nm decreased, and an absorbance at 500 to 600 nm increased.
Out of the stock solution prepared in (4-2-1), 200 μl of stock solution was isomerized to the cis form as described previously, after which the resulting product was placed in a quartz cell measuring 1 cm per side. The quartz cell was irradiated with visible light having a wavelength of 550 nm in a dark place, so that photoisomerization of cis-8-(p-toluoylazo) guanosine was assessed by measuring time-dependent changes of absorption spectrum of the cis-8-(p-toluoylazo)guanosine. […]

[2] = Alternate cis-trans photoisomerization, durability against reversible photoisomerization (absorbance 420 nm); assay type: physicochemical; conditions: 25 μM in methanol, alternate 420 nm / 550 nm, each 20 seconds, 30 cycles
Protocol: A stock solution was prepared by dissolving the trans-8-phenylazoguanosine obtained in (3-1) in methanol so that the trans-8-phenylazoguanosine presented at a concentration of 25 μM in the stock solution. In a quartz cell measuring 1 cm per side was placed 200 μl out of the stock solution. The quartz cell was alternately irradiated with visible light having wavelength of 420 nm and with visible light having a wavelength of 550 nm, each for 20 seconds, in a dark place. While this process was repeated in 30 cycles, an absorbance (420 nm) was measured. From the result of the measurement, durability of the compound against reversible photoisomerization was assessed. MAX-301 manufactured by Asahi Spectra Co., Ltd. was used as a light source, and M.C.420/10 nm and M.C.550/10 nm manufactured by the same manufacturer were used as filters.

Row | Compound | photoisomerization from cis form to trans form [1] | photoisomerization from trans form to cis form [1] | other results
1 | Cc1ccc(/N=N\c2nc3c(=O)[nH]c(N)nc3n2[C@@H]2O[C@H](CO)[C@H](O)C2O)cc1 (stereo partly drawn) | photoisomerized nearly completely to the trans form | – | –
2 | Nc1nc2c(nc(/N=N\c3ccccc3)n2[C@@H]2O[C@H](CO)[C@H](O)C2O)c(=O)[nH]1 (stereo partly drawn) [cis-8-phenylazoguanosine] | photoisomerized nearly completely to the trans form | – | –
3 | Cc1ccc(/N=N/c2nc3c(=O)[nH]c(N)nc3n2[C@@H]2O[C@H](CO)[C@H](O)C2O)cc1 (stereo partly drawn) | – | photoisomerized nearly completely to the cis form | –
4 | trans-8-phenylazoguanosine | – | – | durability against reversible photoisomerization (decomposition, side-reaction) [2]: no decomposition and side-reaction; trans to cis and cis to trans photoisomerizations on alternate irradiation [2]: alternately took place
5 | Nc1nc2c(nc(/N=N/c3ccccc3)n2[C@@H]2O[C@H](CO)[C@H](O)C2O)c(=O)[nH]1 (stereo partly drawn) [trans-8-phenylazoguanosine] | – | photoisomerized nearly completely to the cis form | –
